Calls of active or inactive are those of the source. The rule behind the calls is not given here.

One assay concerns Aspergillus fumigatus. Description: Antifungal activity against Aspergillus fumigatus ATCC 90906 assessed as fungal growth inhibition incubated for 72 hrs by alamar blue assay. It is filed as functional.
Settings: not given
(In general: Resazurin is reduced to fluorescent resorufin, in cell work by metabolically active cells.)
As usually defined, the MIC is the lowest concentration that inhibits growth of the organism. In the case of `CCCCCCCCCCCCCCc1c(C)c(C)cn1CCCNCc1ccccc1`, the MIC result is “inactive”.

Consider `CCCCCCCCCCCCCCC1(O)C(C)=C(C)C2=[N+](CC(=O)c3cccc(Cl)c3)CCCN21` (centres undefined), for which the MIC result is “inactive”.

In the case of `CCCCCCCCCCCCCCC1(O)C(C)=C(C)C2=[N+](Cc3ccccc3)CCCN21.[Cl-]` (centres undefined), the minimum inhibitory concentration (MIC) came to 5.9 µM.

The assay is the same for the next values; noted with them: Aspergillus fumigatus, ATCC 90906, 72 h, read-out: MIC.
In the case of `CCCCCCCCCCCCCCC1(O)C(C)=C(C)C2=[N+](Cc3ccc(OC)cc3)CCCN21` (centres undefined), the MIC turned out to be 3.7 µM.

The next assay concerns Candida albicans. The assay can be described thus: Antifungal activity against Candida albicans ATCC 90028 assessed as fungal growth inhibition incubated for 18 to 24 hrs by alamar blue assay. It is filed as functional. The note with it: Candida albicans, ATCC 90028, time 18-24 hrs; read-out: MIC.
On to `CCCCCCCCCCCCCCC1(O)C(C)=C(C)C2=[N+](Cc3ccc(OC)cc3)CCCN21` (centres undefined), for which the MIC came to 3.7 µM.

Consider `CCCCCCCCCCCCCCC1(O)C(C)=C(C)C2=[N+](CC(=O)c3cccc(Cl)c3)CCCN21` (centres undefined), for which the minimum inhibitory concentration (MIC) is 18 µM.

Staying with this assay, now noted: time 18-24 hrs.
On to `CCCCCCCCCCCCCCc1c(C)c(C)cn1CCCNCc1ccccc1`, for which the MIC entry is “inactive”.

On to `CCCCCCCCCCCCCCC1(O)C(C)=C(C)C2=[N+](Cc3ccccc3)CCCN21.[Cl-]` (centres undefined), for which the minimum inhibitory concentration (MIC) turned out to be 6.7 µM.

A further assay has as its system Pichia kudriavzevii. The assay can be described thus: Fungicidal activity against Candida krusei ATCC 6258 assessed as fungal growth inhibition incubated for 18 to 24 hrs by alamar blue assay. The note with it: Pichia kudriavzevii, ATCC 6258, time 18-24 hrs; read-out: MFC. Format: functional.
The term MFC denotes the lowest tested concentration that kills the fungus rather than only halting it. As to `CCCCCCCCCCCCCCC1(O)C(C)=C(C)C2=[N+](Cc3ccc(OC)cc3)CCCN21` (centres undefined), the MFC was determined as 2.7 µM.

On to `CCCCCCCCCCCCCCC1(O)C(C)=C(C)C2=[N+](CC(=O)c3cccc(Cl)c3)CCCN21` (centres undefined), for which the minimum fungicidal concentration (MFC) was 6.2 µM.

Still in this assay, the particulars now being: time 18-24 hrs.
As for `CCCCCCCCCCCCCCc1c(C)c(C)cn1CCCNCc1ccccc1`, the MFC entry was “inactive”.

As to `CCCCCCCCCCCCCCC1(O)C(C)=C(C)C2=[N+](Cc3ccccc3)CCCN21.[Cl-]` (centres undefined), the MFC was 4.3 µM.

For the next assay, the system named is Pichia kudriavzevii. Description: Antifungal activity against Candida krusei ATCC 6258 assessed as fungal growth inhibition incubated for 18 to 24 hrs by alamar blue assay. Format: functional. The settings on record: Pichia kudriavzevii, ATCC 6258, time 18-24 hrs; read-out: MIC.
In the case of `CCCCCCCCCCCCCCC1(O)C(C)=C(C)C2=[N+](Cc3ccc(OC)cc3)CCCN21` (centres undefined), the MIC turned out to be 1.8 µM.

Regarding `CCCCCCCCCCCCCCC1(O)C(C)=C(C)C2=[N+](CC(=O)c3cccc(Cl)c3)CCCN21` (centres undefined), the MIC turned out to be 6.2 µM.

The same assay, now with this note: time 18-24 hrs.
On to `CCCCCCCCCCCCCCc1c(C)c(C)cn1CCCNCc1ccccc1`, for which the MIC result is “inactive”.

With `CCCCCCCCCCCCCCC1(O)C(C)=C(C)C2=[N+](Cc3ccccc3)CCCN21.[Cl-]` (centres undefined), the MIC came out at 4.3 µM.

The next assay has as its system Vero. The assay can be described thus: Cytotoxicity against African green monkey Vero cells assessed as reduction in cell viability incubated for 48 hrs by neutral red dye based assay. Also noted: species or system Chlorocebus sabaeus. The settings on record: Chlorocebus sabaeus, Vero, 48 h.
One may read the IC50 as the concentration at which inhibition is half-maximal. As for `CCCCCCCCCCCCCCc1c(C)c(C)cn1CCCNCc1ccccc1`, the IC50 is 42 µM.

For `CCCCCCCCCCCCCCC1(O)C(C)=C(C)C2=[N+](Cc3ccc(OC)cc3)CCCN21` (centres undefined), the IC50 amounted to 24 µM.

For `CCCCCCCCCCCCCCC1(O)C(C)=C(C)C2=[N+](CC(=O)c3cccc(Cl)c3)CCCN21` (centres undefined), the IC50 was 7.7 µM.

The assay is the same for the next values; noted with them: vero.
As for `CCCCCCCCCCCCCCC1(O)C(C)=C(C)C2=[N+](Cc3ccccc3)CCCN21.[Cl-]` (centres undefined), the IC50 came out at 36 µM.

For another assay, the system named is Nakaseomyces glabratus. The assay can be described thus: Fungicidal activity against Candida glabrata ATCC 90030 assessed as fungal growth inhibition incubated for 18 to 24 hrs by alamar blue assay. It is filed as functional. The note with it: Nakaseomyces glabratus, ATCC 90030, time 18-24 hrs; read-out: MFC.
Regarding `CCCCCCCCCCCCCCC1(O)C(C)=C(C)C2=[N+](Cc3ccc(OC)cc3)CCCN21` (centres undefined), the minimum fungicidal concentration (MFC) stood at 3 µM.

As to `CCCCCCCCCCCCCCC1(O)C(C)=C(C)C2=[N+](CC(=O)c3cccc(Cl)c3)CCCN21` (centres undefined), the MFC was found to be 4.9 µM.

The assay is the same for the next values; noted with them: time 18-24 hrs.
On to `CCCCCCCCCCCCCCc1c(C)c(C)cn1CCCNCc1ccccc1`, for which the MFC result is “inactive”.

For the compound `CCCCCCCCCCCCCCC1(O)C(C)=C(C)C2=[N+](Cc3ccccc3)CCCN21.[Cl-]` (centres undefined), the MFC came out at 4.3 µM.

A further assay has as its system Cryptococcus neoformans. Description: Antifungal activity against Cryptococcus neoformans ATCC 90113 assessed as fungal growth inhibition incubated for 72 hrs by alamar blue assay. It is filed as functional.
Settings: not given
With `CCCCCCCCCCCCCCc1c(C)c(C)cn1CCCNCc1ccccc1`, the MIC result is “inactive”.

As to `CCCCCCCCCCCCCCC1(O)C(C)=C(C)C2=[N+](Cc3ccccc3)CCCN21.[Cl-]` (centres undefined), the MIC is 2 µM.

The same assay, now with this note: Cryptococcus neoformans, ATCC 90113, 72 h, read-out: MIC.
On to `CCCCCCCCCCCCCCC1(O)C(C)=C(C)C2=[N+](Cc3ccc(OC)cc3)CCCN21` (centres undefined), for which the MIC stood at 1.1 µM.

Take `CCCCCCCCCCCCCCC1(O)C(C)=C(C)C2=[N+](CC(=O)c3cccc(Cl)c3)CCCN21` (centres undefined): the MIC turned out to be 3.7 µM.

The next assay has as its system Cryptococcus neoformans. The assay can be described thus: Fungicidal activity against Cryptococcus neoformans ATCC 90113 assessed as fungal growth inhibition incubated for 72 hrs by alamar blue assay. Format: functional.
Settings: not given
Turning to `CCCCCCCCCCCCCCc1c(C)c(C)cn1CCCNCc1ccccc1`, the MFC result is “inactive”.

Consider `CCCCCCCCCCCCCCC1(O)C(C)=C(C)C2=[N+](Cc3ccccc3)CCCN21.[Cl-]` (centres undefined), for which the minimum fungicidal concentration (MFC) stood at 2 µM.

Staying with this assay, now noted: Cryptococcus neoformans, ATCC 90113, 72 h, read-out: MFC.
For the compound `CCCCCCCCCCCCCCC1(O)C(C)=C(C)C2=[N+](Cc3ccc(OC)cc3)CCCN21` (centres undefined), the MFC was found to be 1.4 µM.

Take `CCCCCCCCCCCCCCC1(O)C(C)=C(C)C2=[N+](CC(=O)c3cccc(Cl)c3)CCCN21` (centres undefined): the MFC turned out to be 3.7 µM.

The next assay has as its system Candida albicans. The assay can be described thus: Fungicidal activity against Candida albicans ATCC 90028 assessed as fungal growth inhibition incubated for 18 to 24 hrs by alamar blue assay. It is filed as functional. The note with it: Candida albicans, ATCC 90028, time 18-24 hrs; read-out: MFC.
For the compound `CCCCCCCCCCCCCCC1(O)C(C)=C(C)C2=[N+](Cc3ccc(OC)cc3)CCCN21` (centres undefined), the MFC was 3.7 µM.

As for `CCCCCCCCCCCCCCC1(O)C(C)=C(C)C2=[N+](CC(=O)c3cccc(Cl)c3)CCCN21` (centres undefined), the MFC stood at 18 µM.

Still in this assay, the particulars now being: time 18-24 hrs.
`CCCCCCCCCCCCCCc1c(C)c(C)cn1CCCNCc1ccccc1`: the MFC result was “inactive”.

For `CCCCCCCCCCCCCCC1(O)C(C)=C(C)C2=[N+](Cc3ccccc3)CCCN21.[Cl-]` (centres undefined), the MFC was 6.7 µM.

The subject of another assay is Nakaseomyces glabratus. The assay can be described thus: Antifungal activity against Candida glabrata ATCC 90030 assessed as fungal growth inhibition incubated for 18 to 24 hrs by alamar blue assay. It is filed as functional. The note with it: Nakaseomyces glabratus, ATCC 90030, time 18-24 hrs; read-out: MIC.
Take `CCCCCCCCCCCCCCC1(O)C(C)=C(C)C2=[N+](Cc3ccc(OC)cc3)CCCN21` (centres undefined): the MIC was found to be 3 µM.

Turning to `CCCCCCCCCCCCCCC1(O)C(C)=C(C)C2=[N+](CC(=O)c3cccc(Cl)c3)CCCN21` (centres undefined), the MIC was 4.9 µM.

The assay is the same for the next values; noted with them: time 18-24 hrs.
As to `CCCCCCCCCCCCCCc1c(C)c(C)cn1CCCNCc1ccccc1`, the MIC entry was “inactive”.

On to `CCCCCCCCCCCCCCC1(O)C(C)=C(C)C2=[N+](Cc3ccccc3)CCCN21.[Cl-]` (centres undefined), for which the MIC came out at 4.3 µM.

Another assay has as its system Aspergillus fumigatus. Description: Fungicidal activity against Aspergillus fumigatus ATCC 90906 assessed as fungal growth inhibition incubated for 72 hrs by alamar blue assay. It is filed as functional.
Settings: not given
Regarding `CCCCCCCCCCCCCCc1c(C)c(C)cn1CCCNCc1ccccc1`, the MFC result was “inactive”.

Regarding `CCCCCCCCCCCCCCC1(O)C(C)=C(C)C2=[N+](CC(=O)c3cccc(Cl)c3)CCCN21` (centres undefined), the MFC entry is “inactive”.

In the case of `CCCCCCCCCCCCCCC1(O)C(C)=C(C)C2=[N+](Cc3ccccc3)CCCN21.[Cl-]` (centres undefined), the MFC stood at 5.9 µM.

Staying with this assay, now noted: Aspergillus fumigatus, ATCC 90906, 72 h, read-out: MFC.
For `CCCCCCCCCCCCCCC1(O)C(C)=C(C)C2=[N+](Cc3ccc(OC)cc3)CCCN21` (centres undefined), the MFC came to 5.1 µM.
